Legend:
Type in all cases: cell-based
[1] = test system: fetal hemoglobin (HbF) in GCSF-mobilized human CD34+ cells; assay: HbF Induction Assay; conditions: 168 h; compound 1 μM, 7 days, erythroid-differentiated human CD34+ cells, flow cytometry; DMSO baseline 15% HbF positive cells
Protocol: The expansion, differentiation, and maturation of GCSF-mobilized human CD34^+ (STEMCELL Technologies Inc.) cells towards erythroid lineage cells were performed using a two-phase liquid culture model (Moutouh-de Parseval L A, el al. Pomalidomide and lenalidomide regulate erythropoiesis and fetal hemoglobin production in human CD34+ cells. J Clin Invest. 2008 January; 118(1):248-58). In the first phase, GCSF-mobilized human CD34^+ cells were cultured using StemSpan™-XF (STEMCELL Technologies Inc.) media supplemented with 1×BIT 9500, Penicillin-Streptomycin (50 U/mL), 100 ng/mL recombinant human (rh) SCF, 100 ng/mL rh Flt3-L, 20 ng/mL rh IL-3 and 10 ng/mL rh EPO and the growth of cells maintained in exponential phase for 7 days at 37° C. with 5% CO2 to support expansion and progenitor differentiation prior the second phase and treatment with compounds. In the second phase, culture media was changed to StemSpan™-XF media supplemented with 1×BIT 9500, Penicillin-Streptomycin (50 U/mL), 50 ng/mL rh SCF and 40 ng/mL rh EPO to promote further differentiation and maturation of the erythrocytes and to initiate treatment with compounds. Compounds were dispensed in duplicate at a final concentration of 1 μM in a final DMSO amount of 0.1%. Fresh compound was reapplied, and cell density was kept constant every 2 days. After 7 days, the cells were assessed for viability and fetal hemoglobin expression using flow cytometry. For viability analysis, eBioscience™ Fixable Viability Dye eFluor™ 780 (1:1000, eBioscience; Cat #65-0865-14) was added to the cells and kept in the dark for 10 minutes. For analysis of fetal hemoglobin (HbF), cells were fixed and permeabilized using Fixation Buffer (BioLegend; Cat #420801 and Intracellular staining permeabilization buffer (BioLegend, Cat #420201) following manufacturer's instructions. During permeabilization step, cells were stained with PE-labelled Mouse Anti-Human Fetal Hemoglobin (1:10, clone 2D12; BD Biosciences, Cat #BDB560041) incubated at room temperature for 20 minutes and protected from light. PE-labelled Mouse anti-IgG k, (1:10 clone MOPC-21; BD Biosciences, Cat# BDB551436) was used as an isotype control.
Viability, cell count, and fetal hemoglobin (HbF) levels were measured using an Attune NXT flow cytometer (Thermofisher) and the data analyzed using the FCS express software (De Novo Software). In Table 1 below, the effects of compounds of formula (I), formula (I′), formula (II), formula (II′), and formula (III) on % viable cells, viable cell count, on the % HbF positive cells and the median fluorescent intensity (MFI) of the HbF positive cell population compared to the DMSO controls can be viewed. All gates were set using the isotype negative control. The baseline % HbF positive cells for DMSO-treated control cells was 15%. Compounds of formula (I), formula (I′), formula (II), formula (II′), and formula (III) having HbF induction between 66% and 100% are level A. Compounds of formula (I), formula (I′), formula (II), formula (II′), and formula (III) having HbF induction between 33% and 66% are level B. Compounds of formula (I), formula (I′), formula (II), formula (II′), and formula (III) having HbF induction % less than 33% are level C. For certain compounds of formula (I), formula (I′), formula (II), formula (II′), and formula (III) % HbF induction values 0-33% (activity level C), between 33% and 66% (activity level B), and between 67% and 100% (activity level A) are shown in Table 2 below.

[2] = target: WIZ (Widely interspaced zinc finger) (Homo sapiens (Human), UniProt O95785+Q96SW2); assay: HUDEP-2 WIZ HiBiT degradation assay; conditions: HUDEP-2 WIZ HiBiT cells, 24 hours treatment, luminescence; for DC50: read-out: WIZ EC50
Protocol: (§1) The HiBiT degradation assay for WIZ and ZBTB7A in HUDEP-2 cells was performed as described below. HUDEP-2 cells engineered to express a HiBiT tag in either the WIZ (Widely interspaced zinc finger) or ZBTB7A (Zinc Finger And BTB Domain Containing 7A) proteins were maintained in low attachment flasks in StemSpan SFEM II media supplemented with Penicillin-Streptomycin (50 U/mL), rhSCF (50 ng/mL), rhEPO (3 IU/mL), dexamethasone (0.4 μg/mL) and doxycycline (1 μg/mL). Prior to start of the assay, cell count and viability were measured by trypan blue exclusion using the Vi-cell XR cell viability analyzer. For the HUDEP-2 WIZ HiBiT assay, cells were transferred to a 50 mL conical and centrifuged at 500 g for five minutes. Cells were resuspended in fresh StemSpan SFEM II media supplemented with Penicillin-Streptomycin (50 U/mL), rhSCF (50 ng/mL), rhEPO (3 IU/mL), dexamethasone (0.4 μg/mL) and doxycycline (1 μg/mL) at a density of 1.0×10^6 cells/ml. Forty microliters of cell suspension was dispensed into 384-well Low Flange White Flat Bottom Polystyrene TC-treated Microplates containing pre-dispensed compounds, using a VIAFLO 384 liquid hander, and placed in a 37° C. incubator with 5% CO2. […] After 24 hours of treatment, 40 μL Nano-Glo HiBiT Lytic Detection System reagent was dispensed into each well using a VIAFLO 384 liquid hander. Plates were incubated for 25 minutes at room temperature and the luminescence was read as relative luminescent units using the EnVision plate reader. EC50 and Y-min values were calculated using curves calculated from dotmatics software after the normalization to the DMSO control of 10 different concentrations: 10, 3.33, 1.11, 0.37, 0.12, 0.04 0.0137, 0.0046, 0.0015 and 0.0005 μM respectively.

[3] = target: ZBTB7A (Zinc Finger And BTB Domain Containing 7A) (Homo sapiens (Human), UniProt O95365+Q96SW2); assay: HUDEP-2 ZBTB7A HiBiT degradation assay; conditions: HUDEP-2 ZBTB7A HiBiT cells, 24 hours treatment, luminescence; for DC50: read-out: ZBTB7A EC50
Protocol: as §1
For the HUDEP-2 ZBTB7A HiBiT assay, cell count and viability were measured by trypan blue exclusion using the Vi-cell XR cell viability analyzer and the cells were transferred to a 50 mL conical and centrifuged at 500 g for five minutes. Cells were resuspended in fresh IMDM media supplemented with L-Glutamine (1×), Penicillin-Streptomycin (50 U/mL), holo-transferrin (330 μg/mL), heparin (2 IU/mL), r-human Insulin (10 μg/mL), rhEPO (3 IU/mL), rhSCF (100 ng/mL)+Dox (1 μg/mL) and 5% human plasma in low attachment flasks, which were placed in a 37° C. incubator with 5% CO2. After 48 hours, cell count and viability were measured by trypan blue exclusion using the Vi-cell XR cell viability analyzer. The HUDEP-2 ZBTB7A cells were transferred to a 50 mL conical, centrifuged at 500 g for five minutes and resuspended at a density of 1.0×10^6 cells/ml in IMDM media supplemented with L-Glutamine (1×), Penicillin-Streptomycin (50 U/mL), holo-transferrin (330 μg/mL), heparin (2 IU/mL), r-human Insulin (10 μg/mL), rhEPO (3 IU/mL), rhSCF (100 ng/mL)+Dox (1 μg/mL) and 5% human plasma. Forty microliters of cell suspension was dispensed into 384-well Low Flange White Flat Bottom Polystyrene TC-treated Microplates containing pre-dispensed compounds, using a VIAFLO 384 liquid hander, and placed in a 37° C. incubator with 5% CO2. […] After 24 hours of treatment, 40 μL Nano-Glo HiBiT Lytic Detection System reagent was dispensed into each well using a VIAFLO 384 liquid hander. Plates were incubated for 25 minutes at room temperature and the luminescence was read as relative luminescent units using the EnVision plate reader. EC50 and Y-min values were calculated using curves calculated from dotmatics software after the normalization to the DMSO control of 10 different concentrations: 10, 3.33, 1.11, 0.37, 0.12, 0.04 0.0137, 0.0046, 0.0015 and 0.0005 μM respectively.

Sequence of ZBTB7A (Zinc Finger And BTB Domain Containing 7A) (O95365 whole entry, the tested form may be a part): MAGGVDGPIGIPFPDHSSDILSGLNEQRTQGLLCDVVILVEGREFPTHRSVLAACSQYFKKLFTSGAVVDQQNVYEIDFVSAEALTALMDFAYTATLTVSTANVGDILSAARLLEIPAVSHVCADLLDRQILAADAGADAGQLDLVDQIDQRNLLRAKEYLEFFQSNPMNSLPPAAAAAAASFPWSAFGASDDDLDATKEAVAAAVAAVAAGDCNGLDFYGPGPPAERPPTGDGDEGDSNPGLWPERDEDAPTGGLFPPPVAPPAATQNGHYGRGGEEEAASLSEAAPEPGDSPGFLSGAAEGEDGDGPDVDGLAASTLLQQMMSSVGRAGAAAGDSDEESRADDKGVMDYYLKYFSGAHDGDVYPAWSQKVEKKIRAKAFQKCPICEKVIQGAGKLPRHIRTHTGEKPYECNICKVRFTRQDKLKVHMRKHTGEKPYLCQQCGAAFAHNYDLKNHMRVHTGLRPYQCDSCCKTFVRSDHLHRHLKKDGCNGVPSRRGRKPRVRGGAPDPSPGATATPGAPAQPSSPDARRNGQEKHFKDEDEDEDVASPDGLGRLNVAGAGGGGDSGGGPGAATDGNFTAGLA
Sequence of ZBTB7A (Zinc Finger And BTB Domain Containing 7A) (Q96SW2 whole entry, the tested form may be a part): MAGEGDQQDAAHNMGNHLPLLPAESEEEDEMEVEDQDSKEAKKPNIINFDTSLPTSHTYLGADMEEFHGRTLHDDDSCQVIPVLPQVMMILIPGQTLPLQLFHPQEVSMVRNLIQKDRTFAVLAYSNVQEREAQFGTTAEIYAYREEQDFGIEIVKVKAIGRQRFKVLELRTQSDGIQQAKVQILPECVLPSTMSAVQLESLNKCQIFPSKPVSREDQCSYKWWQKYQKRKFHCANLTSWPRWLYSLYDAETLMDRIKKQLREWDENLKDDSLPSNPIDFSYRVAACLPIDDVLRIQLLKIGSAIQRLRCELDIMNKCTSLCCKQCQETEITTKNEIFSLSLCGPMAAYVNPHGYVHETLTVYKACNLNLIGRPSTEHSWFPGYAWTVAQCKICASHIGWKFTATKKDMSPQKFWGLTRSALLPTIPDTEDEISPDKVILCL
Sequence of ZBTB7A (Zinc Finger And BTB Domain Containing 7A) (Q16531 whole entry partner, the tested form may be a part): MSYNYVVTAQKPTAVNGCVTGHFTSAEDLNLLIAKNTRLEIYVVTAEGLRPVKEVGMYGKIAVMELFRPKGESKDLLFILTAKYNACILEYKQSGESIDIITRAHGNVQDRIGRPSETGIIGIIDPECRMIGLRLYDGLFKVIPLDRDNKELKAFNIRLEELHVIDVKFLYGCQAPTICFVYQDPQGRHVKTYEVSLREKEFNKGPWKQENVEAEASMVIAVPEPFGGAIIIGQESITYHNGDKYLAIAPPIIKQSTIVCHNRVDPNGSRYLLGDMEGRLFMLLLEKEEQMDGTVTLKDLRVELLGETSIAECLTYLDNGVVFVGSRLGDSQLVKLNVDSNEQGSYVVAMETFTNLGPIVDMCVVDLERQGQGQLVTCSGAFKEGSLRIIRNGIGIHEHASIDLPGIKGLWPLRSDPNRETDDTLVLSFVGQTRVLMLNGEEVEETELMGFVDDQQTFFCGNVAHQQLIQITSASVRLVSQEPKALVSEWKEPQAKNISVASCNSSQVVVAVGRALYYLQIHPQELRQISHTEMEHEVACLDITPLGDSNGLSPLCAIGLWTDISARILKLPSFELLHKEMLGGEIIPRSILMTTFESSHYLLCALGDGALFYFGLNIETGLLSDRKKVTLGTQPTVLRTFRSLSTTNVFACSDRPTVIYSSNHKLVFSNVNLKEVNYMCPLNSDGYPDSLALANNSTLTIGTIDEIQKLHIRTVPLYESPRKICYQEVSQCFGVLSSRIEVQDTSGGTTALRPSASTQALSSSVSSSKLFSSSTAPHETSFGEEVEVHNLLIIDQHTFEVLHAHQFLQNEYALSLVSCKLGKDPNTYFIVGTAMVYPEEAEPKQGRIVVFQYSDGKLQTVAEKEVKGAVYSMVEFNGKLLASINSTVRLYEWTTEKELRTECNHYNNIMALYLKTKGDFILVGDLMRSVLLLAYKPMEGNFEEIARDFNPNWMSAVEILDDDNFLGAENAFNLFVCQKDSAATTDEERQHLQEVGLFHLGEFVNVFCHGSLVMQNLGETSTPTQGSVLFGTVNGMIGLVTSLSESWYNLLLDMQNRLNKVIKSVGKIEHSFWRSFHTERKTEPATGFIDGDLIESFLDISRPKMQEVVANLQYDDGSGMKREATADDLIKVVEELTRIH
Sequence of WIZ (Widely interspaced zinc finger) (O95785 whole entry, the tested form may be a part): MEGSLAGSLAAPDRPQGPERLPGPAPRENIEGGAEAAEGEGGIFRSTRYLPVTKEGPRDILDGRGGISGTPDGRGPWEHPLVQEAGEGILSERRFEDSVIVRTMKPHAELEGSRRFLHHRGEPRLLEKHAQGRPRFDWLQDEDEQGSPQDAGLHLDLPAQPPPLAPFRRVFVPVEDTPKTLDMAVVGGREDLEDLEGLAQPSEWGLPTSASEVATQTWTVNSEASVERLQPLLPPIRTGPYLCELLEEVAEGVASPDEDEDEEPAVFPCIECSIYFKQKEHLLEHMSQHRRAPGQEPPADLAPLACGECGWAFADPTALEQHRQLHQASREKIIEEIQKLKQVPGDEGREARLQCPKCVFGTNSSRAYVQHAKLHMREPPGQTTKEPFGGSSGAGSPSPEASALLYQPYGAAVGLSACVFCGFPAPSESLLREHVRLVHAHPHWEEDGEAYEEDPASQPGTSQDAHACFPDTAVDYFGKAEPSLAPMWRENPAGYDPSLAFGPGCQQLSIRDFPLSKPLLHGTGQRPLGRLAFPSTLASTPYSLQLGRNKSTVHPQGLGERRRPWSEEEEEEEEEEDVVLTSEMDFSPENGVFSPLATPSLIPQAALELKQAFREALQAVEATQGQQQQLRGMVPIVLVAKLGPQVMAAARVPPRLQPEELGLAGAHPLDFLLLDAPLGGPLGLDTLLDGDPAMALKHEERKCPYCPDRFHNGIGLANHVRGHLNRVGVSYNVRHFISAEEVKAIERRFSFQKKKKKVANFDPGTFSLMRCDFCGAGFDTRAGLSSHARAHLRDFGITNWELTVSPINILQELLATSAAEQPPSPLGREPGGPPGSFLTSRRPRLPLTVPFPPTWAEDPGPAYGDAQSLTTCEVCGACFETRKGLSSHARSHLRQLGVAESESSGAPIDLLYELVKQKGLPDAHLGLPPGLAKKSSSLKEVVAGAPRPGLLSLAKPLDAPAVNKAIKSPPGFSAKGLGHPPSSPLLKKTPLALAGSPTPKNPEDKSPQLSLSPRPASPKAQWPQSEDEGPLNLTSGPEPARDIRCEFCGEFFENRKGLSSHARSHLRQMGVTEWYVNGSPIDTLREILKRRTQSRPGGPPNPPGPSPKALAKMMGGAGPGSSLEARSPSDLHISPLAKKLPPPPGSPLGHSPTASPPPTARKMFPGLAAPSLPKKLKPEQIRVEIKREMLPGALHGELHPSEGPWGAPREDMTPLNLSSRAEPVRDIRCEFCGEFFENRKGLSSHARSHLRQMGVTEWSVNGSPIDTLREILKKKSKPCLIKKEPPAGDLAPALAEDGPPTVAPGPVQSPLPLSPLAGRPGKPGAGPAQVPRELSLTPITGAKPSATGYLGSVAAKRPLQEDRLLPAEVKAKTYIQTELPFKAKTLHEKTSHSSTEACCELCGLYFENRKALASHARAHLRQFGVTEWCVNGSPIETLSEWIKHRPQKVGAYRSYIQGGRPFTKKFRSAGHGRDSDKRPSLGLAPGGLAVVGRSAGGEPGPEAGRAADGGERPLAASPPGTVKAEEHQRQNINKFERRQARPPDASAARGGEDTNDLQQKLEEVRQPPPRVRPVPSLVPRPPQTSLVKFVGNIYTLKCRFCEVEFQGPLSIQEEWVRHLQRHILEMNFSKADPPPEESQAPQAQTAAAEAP
Sequence of WIZ (Widely interspaced zinc finger) (Q96SW2 whole entry, the tested form may be a part): as the sequence (Q96SW2 whole entry, the tested form may be a part) above
Sequence of WIZ (Widely interspaced zinc finger) (Q16531 whole entry partner, the tested form may be a part): as the sequence (Q16531 whole entry partner, the tested form may be a part) above

| SMILES | activation at 1 µM [1] | DC50 [2] | EC50 [3] | EC50 [2] | DC50 [3] |
| --- | --- | --- | --- | --- | --- |
| COc1ccc(-c2cc3c(cnn3C)cc2Nc2cccc3c2C(=O)N(C2CCC(=O)NC2=O)C3=O)cc1F (stereo not drawn) [Compound 14, 2-(2,6-dioxopiperidin-3-yl)-4-((6-(3-fluoro-4-methoxyphenyl)-1-methyl-1H-indazol-5-yl)amino)isoindoline-1,3-dione] | 66 to 100% | > 100 nM | > 100 nM |  |  |
| Cn1ncc2cc(Nc3cccc4c3C(=O)N(C3CCC(=O)NC3=O)C4=O)c(Oc3ccccc3)cc21 (stereo not drawn) [Compound 15, 2-(2,6-dioxopiperidin-3-yl)-4-((1-methyl-6-phenoxy-1H-indazol-5-yl)amino)isoindoline-1,3-dione] | 66 to 100% |  |  | < 10 nM | 30 to 100 nM |
| O=C1CCC(N2C(=O)c3cccc(Nc4cc5cnn(C6CCOCC6)c5cc4Oc4cccc(F)c4)c3C2=O)C(=O)N1 (stereo not drawn) [Compound 16, 2-(2,6-dioxopiperidin-3-yl)-4-((6-(3-fluorophenoxy)-1-(tetrahydro-2H-pyran-4-yl)-1H-indazol-5-yl)amino)isoindoline-1,3-dione] | 66 to 100% |  | > 100 nM | < 10 nM |  |
| Cn1ncc2cc(Nc3cccc4c3C(=O)N(C3CCC(=O)NC3=O)C4=O)c(Oc3ccc(F)cc3)cc21 (stereo not drawn) [Compound 17, 2-(2,6-dioxopiperidin-3-yl)-4-((6-(4-fluorophenoxy)-1-methyl-1H-indazol-5-yl)amino)isoindoline-1,3-dione] | 66 to 100% | 10 to 100 nM |  |  | 30 to 100 nM |
| COc1cc2c(cnn2C2CCOCC2)cc1Nc1cccc2c1C(=O)N(C1CCC(=O)NC1=O)C2=O (stereo not drawn) [Compound 18, 2-(2,6-dioxopiperidin-3-yl)-4-((6-methoxy-1-(tetrahydro-2H-pyran-4-yl)-1H-indazol-5-yl)amino)isoindoline-1,3-dione] | 66 to 100% |  |  | < 10 nM | 30 to 100 nM |
| Cc1cc(-c2cc3c(cnn3C)cc2Nc2cccc3c2C(=O)N(C2CCC(=O)NC2=O)C3=O)ccn1 (stereo not drawn) [Compound 19, 2-(2,6-dioxopiperidin-3-yl)-4-((1-methyl-6-(2-methylpyridin-4-yl)-1H-indazol-5-yl)amino)isoindoline-1,3-dione] | 66 to 100% | > 100 nM | > 100 nM |  |  |
| Cc1c(Nc2cccc3c2C(=O)N(C2CCC(=O)NC2=O)C3=O)ccc2c1cnn2C1CCOCC1 (stereo not drawn) [Compound 20, 2-(2,6-dioxopiperidin-3-yl)-4-((4-methyl-1-(tetrahydro-2H-pyran-4-yl)-1H-indazol-5-yl)amino)isoindoline-1,3-dione] | 33 to 66% |  | > 100 nM | < 10 nM |  |
| Cc1cc(Oc2ccccc2)c(Nc2cccc3c2C(=O)N(C2CCC(=O)NC2=O)C3=O)cn1 (stereo not drawn) [Compound 21, 2-(2,6-dioxopiperidin-3-yl)-4-((6-methyl-4-phenoxypyridin-3-yl)amino)isoindoline-1,3-dione] | 33 to 66% |  |  | < 10 nM | 30 to 100 nM |
| Cn1ncc2cc(Nc3cccc4c3C(=O)N(C3CCC(=O)NC3=O)C4=O)c(C3CCOCC3)cc21 (stereo not drawn) [Compound 22, 2-(2,6-dioxopiperidin-3-yl)-4-((1-methyl-6-(tetrahydro-2H-pyran-4-yl)-1H-indazol-5-yl)amino)isoindoline-1,3-dione] | 33 to 66% | 10 to 100 nM | > 100 nM |  |  |
| Cc1cc(-c2cc3c(cc2Nc2cccc4c2C(=O)N(C2CCC(=O)NC2=O)C4=O)nc(C)n3C)ccn1 (stereo not drawn) [Compound 23, 4-((1,2-dimethyl-6-(2-methylpyridin-4-yl)-1H-benzo[d]imidazol-5-yl)amino)-2-(2,6-dioxopiperidin-3-yl)isoindoline-1,3-dione] | 33 to 66% | > 100 nM | > 100 nM |  |  |
| Cc1cc(-c2cc3c(cnn3C)cc2Nc2cccc3c2C(=O)N(C2CCC(=O)NC2=O)C3=O)cnn1 (stereo not drawn) [Compound 24, 2-(2,6-dioxopiperidin-3-yl)-4-((1-methyl-6-(6-methylpyridazin-4-yl)-1H-indazol-5-yl)amino)isoindoline-1,3-dione] | 33 to 66% | > 100 nM | > 100 nM |  |  |
| Cn1ncc2cc(Nc3cccc4c3C(=O)N(C3CCC(=O)NC3=O)C4=O)c(Oc3cccc(Cl)c3)cc21 (stereo not drawn) [Compound 25, 4-((6-(3-chlorophenoxy)-1-methyl-1H-indazol-5-yl)amino)-2-(2,6-dioxopiperidin-3-yl)isoindoline-1,3-dione] | 33 to 66% | 10 to 100 nM | > 100 nM |  |  |

Reference: US20240208937A1, “Compounds and Their Use for Treatment of Hemoglobinopathies” (Bristol-Myers Squibb Company, priority 2022, published 2024)
